From article PMC8298232 (Archives of Toxicology, 2021) come the findings set out here.

“And” between values parts separate entries of the source, which are not always exact repeats. Equal entries are not always repeated.

Data set [1] is described as follows: Shares of conjugated analytes in urine (analysis with and without β-glucuronidase/arylsulfatase hydrolysis). The conditions noted are these: for Conjugation ratio: urine of one volunteer, with vs without hydrolysis. The method, then:
The analysis of urine samples was performed with and without hydrolysis for one volunteer to determine the shares of analytes conjugated with glucuronic acid or sulfate. Initially, urine samples were thawed, equilibrated to room temperature and homogenized using a vortex mixer. Afterwards, the Monovettes® were centrifuged for 2 min at 1600 g to sediment solid residue in the sample. 1 mL of the sample was transferred into a 15 mL conical tube (Sarstedt, Nümbrecht, Germany). Without hydrolysis, 1 mL of the urine samples was prepared with 200 μL of ammonium acetate buffer (1 mol/L, pH 6) and 10 μL of the internal standard mix solution. […] Finally, the calculated analyte excretion rates (see Sect. “Evaluation of renal elimination”) obtained with hydrolysis were correlated with the ones prepared without hydrolysis for every detected compound. A linear curve fit was applied to the plotted data points. The resulting slope of the regression line described the percentage of free and therefore unconjugated analyte.
Therefore, urine samples of one volunteer were analyzed with and without addition of β-glucuronidase/arylsulfatase from Helix pomatia and incubation according to the standard procedure previously published (Denghel and Göen [2020]) (see Sect. “Analysis of urine samples without hydrolysis”).

Data set [2] in a line: Distribution between blood compartments (plasma to blood ratio). Format: in vivo, human.
Method: Furthermore, blood samples were drawn from each volunteer 2, 4, 6, 8, 10, 24, 34 and 48 h after exposure. In summary, eight blood samples were collected from every volunteer. […] So, for every sampling time one sample was kept as whole blood while the plasma fraction was extracted for the other. In this case, the respective blood vessels were centrifuged at 800 × g for 5 min. The supernatants were transferred to 15 mL conical plastic tubes (Sarstedt, Nümbrecht, Germany). Both blood and plasma samples were stored frozen at − 50 °C until analysis.
Therefore, the concentrations of the analytes in whole blood and plasma were determined according to the SOP (Denghel and Göen [2021]) and an established procedure (see supplemental material), respectively. The results for whole blood and plasma were plotted against the time points of the respective sampling and the plasma to blood ratios (p/b) were calculated by a simplified approach for estimating the AUC ratios. Therefore, all plasma concentrations (in µg/L) determined were added and divided through the sum of the respective blood concentrations (in µg/L) according to the equation: p/b=∑i=0ncplasma/∑i=0ncblood.
Analysis of plasma samples
For the analysis of plasma samples, the procedure for blood samples was adjusted as follows: Initially, CPD plasma was equilibrated to room temperature and homogenized by manual shaking. Frozen samples of the study participants were thawed, equilibrated to room temperature, and homogenized using a vortex mixer. Aliquots of 1 mL were prepared with 10 µL of the internal standard mix. Afterwards, the plasma proteins were precipitated by the additions of 3 mL ACN with 0.1 % formic acid. The samples were vortex-blended for 1 min and centrifuged for 15 min at 3000 x g. The supernatants were transferred into 25 mL tubes with conical bottom (Sarstedt, Nümbrecht, Germany) and diluted with 4 mL of 1 % sodium chloride solution. Afterwards, a mixture of 800 µL CH 2Cl2 and 800 µL ACN was added to every tube. Again, the samples were vortex - blended for 1 min and centrifuged for 15 min at 3000 x g. The upper organic phases wer e transferred into 3 mL screw vials (Müller + Krempel AG, Bülach, Switzerland) and dried under nitrogen. The residues were derivatized with 90 µL BSA + 5 % TMCS. After 30 min reaction time at room temperature, 10 µL of 10 % TSIM were added. The samples wer e transferred to micro inserts, sealed with crimping caps, and incubated at 40 °C for 90 min. Finally, measurement was performed using GC -MS/MS
The next data set is described as follows: clinical. Format: in vivo, human. Conditions: for concentration at 24 h / half-life / Tmax / Cmax: both sexes; for share among the quantified metabolites in blood: blood samples 8 h after exposure, without hydrolysis. The method, then:
Furthermore, blood samples were drawn from each volunteer 2, 4, 6, 8, 10, 24, […] 48 h after exposure. In summary, […] blood samples were collected from every volunteer. One volunteer donated two EDTA—Monovettes® (Sarstedt, Nümbrecht, Germany) for every time point. So, for every sampling time one sample was kept as whole blood while the plasma fraction was extracted for the other. In this case, the respective blood vessels were centrifuged at 800 × g for 5 min. The supernatants were transferred to 15 mL conical plastic tubes (Sarstedt, Nümbrecht, Germany). Both blood and plasma samples were stored frozen at − 50 °C until analysis.
Analysis of blood samples was performed according to a previously published method (Denghel and Göen [2021]). In summary, blood proteins and cellular components were precipitated by the addition of ACN. Afterwards, the supernatant was diluted with sodium chloride solution and the investigated analytes were extracted by dispersive liquid–liquid microextraction (DLLME) using a mixture of CH2Cl2 and ACN. […] Variation coefficients ranged from 2 to 9% for precision in series and from 3 to 11% for interday precision. Additionally, relative recovery rates between 80 and 100% were found.
The ln-transformed mean excretion curve was plotted against the time (in h) to obtain the slope (kel, elimination rate constant) and the excretion half-life (t1/2) as follows: t1/2=ln2/|kel|.

A short description of data set [3]: Renal elimination kinetics of UV 328 and its metabolites in urine after single oral exposure. The conditions noted are these: for Tmax / half-life: both, human, urine, po; for half-life: t½ (renal elimination half-life); for REmax (maximum renal excretion rate): human urine with hydrolysis; for REmax (maximum renal excretion rate) / FUE after 24 h (urinary excretion factor as dose equivalents of UV 328) / FUE after 72 h ≙ Fraction of oral dose: mean ± SD; for FUE after 24 h (urinary excretion factor as dose equivalents of UV 328): 0–24 h; for FUE after 72 h ≙ Fraction of oral dose: 0–72 h; for share of cumulative amounts of all quantified analytes in urine: urine with hydrolysis, cumulative within 72 h. The procedure: Three volunteers (two men and one person, mean age 37.3 ± 15.5, mean body weight 81.3 ± 6.1 kg) were selected for the in vivo study. Prior to oral exposure, every volunteer collected one urine sample. Additionally, one blood sample was taken using EDTA-Monovettes® (Sarstedt, Nümbrecht, Germany) before exposure. […] Thereby, a safety factor of 100 was considered for single application and interspecies differences, resulting in a dose of 0.3 mg/kg bw. […] Participants collected the total urine volume of each void separately throughout 72 h and recorded the respective sampling times. […] The urine samples were volumetrically measured for each sampling point, aliquoted in urine Monovettes® (Sarstedt, Nümbrecht, Germany) and stored frozen at − 50 °C until analysis.
The urine samples were processed according to a previously published procedure (Denghel and Göen [2020]). In brief, urine samples were enzymatically hydrolyzed using β-glucuronidase/arylsulfatase from Helix pomatia. […] The extracts were derivatized with BSA/TMCS and TSIM and finally measured via GC–MS/MS with advanced electron ionization (AEI).
Thereby, RE,i is the renal excretion rate for the urine sample i (in µg/h), ci is the analyte concentration in the urine sample (in µg/L), Vi is the volume of the urine sample (in L) and ti and ti-1 are the elapsed time values (in h) of the sample and the previous sample, respectively.
Afterwards, the time course of the excretion rates RE,i was recorded for the middle of the respective sampling period (ti,m in h) according to the equation: ti,m=ti-1+ti-ti-1/2.
The current excretion rates were plotted as a function of the average time of the respective sampling period for every volunteer and each analyte.
Finally, mean excretion curves were calculated by taking the average of related urinary sampling times and the corresponding renal excretion rates (in µg/h) for all volunteers’ samples (arithmetic mean ± standard deviation). The mean cumulative excreted amount (in µmol) of all volunteers was obtained by addition of each molar excreted amount: ∑i=0nci×Vi/M.
Thereby, ci is the concentration of the metabolite in urine (in µg/L), Vi is the volume of the respective urine sample (in L) and M is the molar mass of the respective metabolite (in µg/µmol).
Afterwards, excretion half-lives (t1/2) (in h) were ascertained as described in Sect. “Evaluation of blood kinetics” by plotting the current excretion rates as function of time.

[4] abbreviates: human, in vivo, po, 0.3 mg/kg, t1/2 (0–24 h) in blood.
[5] abbreviates: human, in vivo, po, 0.3 mg/kg, t1/2 (24–48 h) in blood.
[6] abbreviates: human, in vivo, po, tmax in blood.
[7] abbreviates: sum of plasma concentrations / sum of blood concentrations, one volunteer (n = 1).
The mark [8] stands for this setting: 0.3 mg/kg, human urine, monophasic, oral 0.3 mg/kg bw, n = 3.
The mark [9] stands for this setting: post-dosage human urine, collected until 72 h.
[10] abbreviates: human, whole blood, po, 0.3 mg/kg bw, human whole blood, oral 0.3 mg UV 328/kg body weight, mean ± SD, n = 3.
The mark [11] stands for this setting: human, whole blood, po, 0.3 mg/kg bw, human whole blood, oral 0.3 mg UV 328/kg body weight, n = 3, read-out: tmax in blood.
Setting [12] is: human, whole blood, po, 0.3 mg/kg, first elimination phase, human blood, oral 0.3 mg/kg bw, n = 3, read-out: t1/2 (0–24 h) in blood (converted).
Setting [13] is: human, whole blood, po, 0.3 mg/kg, second elimination phase, human blood, oral 0.3 mg/kg bw, n = 3, read-out: t1/2 (24–48 h) in blood (converted).

With `CCC(C)(C)c1cc(C(C)(C)C(C)=O)cc(-n2nc3ccccc3n2)c1O` [UV 328-4/3-CO, 2-(2H-benzotriazol-2-yl)-4-(2-methylbutan-3-on-2-yl)-6-(tert-pentyl)phenol], in data set [1], the Conjugation ratio came to 100%. Moreover, the “p/b ratio (plasma to blood ratio)” value in data set [2] (human, in vivo) came to 3.2. Besides, in “clinical” (human, in vivo, po, 0.3 mg/kg), the concentration at 24 h was 0.9 ± 0.3 ng/mL. Moreover, the half-life in the data set “clinical” (setting [4]) is 8.3 h; in the data set “clinical” (setting [5]), 16.4 h. In addition, the Tmax (commonly the time from dosing to the highest level) in “clinical” (setting [6]) is 8 h.
Regarding `CC(=O)C(C)(C)c1cc(-n2nc3ccccc3n2)c(O)c(C(C)(C)C(C)O)c1` (stereo not drawn) [UV 328-4/3-CO-6/3-OH, 2-(2H-benzotriazol-2-yl)-4-(2-methylbutan-3-on-2-yl)-6-(3-hydroxy-2-methylbutan-2-yl)phenol], the Conjugation ratio in data set [1] was 100%. For the same compound, the “p/b ratio (plasma to blood ratio)” value in data set [2] (setting [7]) was determined as 2.0. Also, the time of peak concentration (Tmax) was 11.3 h in data set [3] (0.3 mg/kg) and 24 to 34 h in “clinical” (setting [11]). Also, the half-life was 53.5 h in data set [3] (setting [8]); more than 600 h in the data set “clinical” (human, whole blood, oral, 0.3 mg/kg bw, human blood, plateau-shaped elimination curve, phase not specified, read-out: elimination half-life in blood); less than 600 h in the data set “clinical” (setting [12]); less than 600 h in “clinical” (setting [13]). In data set [3] (oral 0.3 mg/kg bw, n = 3), the “REmax (maximum renal excretion rate)” value was found to be 0.65 ± 0.02 µg/h. Also, the “FUE after 24 h (urinary excretion factor as dose equivalents of UV 328)” value in data set [3] (human urine, n = 3) stood at 0.038 ± 0.010%. Besides, the “FUE after 72 h ≙ Fraction of oral dose” value in data set [3] (human urine, n = 3) is 0.081% and 0.081 ± 0.018%. In data set [3] (human urine, monophasic, oral 0.3 mg/kg bw, n = 3, 0.3 mg/kg), the “t½ (renal elimination half-life)” value worked out at 53.3 h. In addition, in data set [3] (setting [9]), the “detection in urine samples after exposure” value (shortened to “detection in urine samples”) is given as “still detectable in urine after the observed period of 72 h”. For the same compound, the “share of cumulative amounts of all quantified analytes in urine” value in data set [3] (n = 3) is 65.8 ± 10.9%. The “share among the quantified metabolites in blood” value in the data set “clinical” (n = 3) came to 13.7 ± 2.5%. Also, in “clinical” (setting [10]), the Cmax (as a rule, the maximum level reached in the sampled fluid or tissue) amounted to 4.95 ± 0.72 ng/mL. In the data set “clinical” (human blood, post-dosage), the “time at which the plateau of blood levels was reached” value is “around 10 h”.
As for `CCC(C)(C)c1cc(C(C)(C)C(C)O)cc(-n2nc3ccccc3n2)c1O` (stereo not drawn) [UV 328-4/3-OH, 2-(2H-benzotriazol-2-yl)-4-(3-hydroxy-2-methylbutan-2-yl)-6-(tert-pentyl)phenol], the Conjugation ratio in data set [1] amounted to 100%. For the same compound, the “p/b ratio (plasma to blood ratio)” value in data set [2] (setting [7]) is on record as 2.1. Besides, the time of peak concentration (Tmax) in data set [3] (0.3 mg/kg) worked out at 9.3 h; in “clinical” (setting [11]) it was 10 h. In addition, the half-life is 46.4 h in data set [3] (setting [8]), 5.9 h in the data set “clinical” (setting [12]) and 15.7 h in “clinical” (setting [13]). For the same compound, the “REmax (maximum renal excretion rate)” value in data set [3] (oral 0.3 mg/kg bw, n = 3) is given as 0.10 ± 0.04 µg/h. The “FUE after 24 h (urinary excretion factor as dose equivalents of UV 328)” value in data set [3] (human urine, n = 3) was 0.004 ± 0.001%. The “FUE after 72 h ≙ Fraction of oral dose” value in data set [3] (human urine, n = 3) was found to be 0.007 ± 0.003%. Besides, the “share of cumulative amounts of all quantified analytes in urine” value in data set [3] (n = 3) worked out at 6.1 ± 2.3%. Moreover, the “share among the quantified metabolites in blood” value in “clinical” (n = 3) is 19.5 ± 4.9%. Further, the Cmax in “clinical” (setting [10]) came out at 7.4 ± 0.9 ng/mL. The concentration at 24 h in “clinical” (whole blood, human blood, 24 h after oral 0.3 mg/kg bw, mean ± SD, n = 3, read-out: mean blood level 24 h after exposure) was 1.5 ± 0.5 ng/mL. Besides, in the data set “clinical” (human whole blood, oral 0.3 mg UV 328/kg body weight, n = 3), the tmax in blood came to 8 h.
With `CCC(C)(C)c1cc(-n2nc3ccccc3n2)c(O)c(C(C)(C)C(C)=O)c1` [UV 328-6/3-CO, 2-(2H-benzotriazol-2-yl)-6-(2-methylbutan-3-on-2-yl)-4-(tert-pentyl)phenol], in data set [3] (setting [9]), the “detection in urine samples” value is “not detected”. Besides, in the data set “clinical” (human blood, plateau until 48 h after exposure), the “plateau concentration in blood” value was approximately 0.1 µg/L. Further, the cmax in blood entry in the data set “clinical” (human whole blood, oral 0.3 mg UV 328/kg body weight, mean ± SD, n = 3) is “< LOQ”.
In the case of `CCC(C)(C)c1cc(-n2nc3ccccc3n2)c(O)c(C(C)(C)C(C)O)c1` (stereo not drawn) [UV 328-6/3-OH, 2-(2H-benzotriazol-2-yl)-6-(3-hydroxy-2-methylbutan-2-yl)-4-(tert-pentyl)phenol], the “share excreted via urine without conjugation to glucuronic acid or sulfate” value in data set [1] (human, in vivo) is on record as “about 3%”. Also, the Conjugation ratio in data set [1] worked out at 97%. The “p/b ratio (plasma to blood ratio)” value in data set [2] (human, in vivo) is 2.3. This compound also yielded a concentration at 24 h in “clinical” (human, in vivo, po, 0.3 mg/kg) of 5.2 ± 0.6 ng/mL. Further, the half-life is 9 h in “clinical” (setting [4]) and 17.9 h in the data set “clinical” (setting [5]). The time of peak concentration (Tmax) in “clinical” (setting [6]) stood at 8 h. The tmax in blood in “clinical” (both, human, in vivo, po) stood at 10 h.
Regarding `CCC(C)(C)c1cc(-n2nc3ccc(O)cc3n2)c(O)c(C(C)(C)CC)c1` [UV 328-BTOH, 2-(2H-5-hydroxybenzotriazol-2-yl)-4,6-(di-tert-pentyl)phenol], the “detection in urine samples” value in data set [3] (in vivo) is given as “not detected”. Besides, the “detection in blood samples after exposure” value in “clinical” (human, in vivo, po, 0.3 mg/kg) was “not detected”.
